Experiments:
[1] = molecular target: Alpha-1 receptor (rat brain cortical membrane preparation); assay: Alpha-1 receptor binding ([3H]-prasosin); conditions: rat brain cortical membranes, [3H]-prasosin 0.5 nM; read-out: Alfa-1 IC-50
Description: The non-specific binding was determined in the presence of 10 μM phentolamine.

[2] = molecular target: T1, rat recombinant D3 receptors (expressed in Sf9 cells) (Rattus norvegicus, UniProt P19020); assay: D3 receptor binding ([3H]-spiperone); conditions: [3H]-spiperone 0.85 nM, read-out: D3 IC-50
T1 construct: purchased Packard BioScience, BioSignal Packard Inc. 6110139; host or cells: Sf9 cells

[3] = molecular target: T2, D2 receptor (rat brain striatal membrane preparation) (Rattus norvegicus, UniProt P61169); assay: D2 receptor binding ([3H]-spiperone); conditions: rat brain striatal membranes, [3H]-spiperone 0.6 nM; read-out: D2 IC-50
T2 construct: on rat brain striatal membrane preparation; from tissue; host or cells: rat brain striatum membranes
T2 sequence (P61169 whole entry): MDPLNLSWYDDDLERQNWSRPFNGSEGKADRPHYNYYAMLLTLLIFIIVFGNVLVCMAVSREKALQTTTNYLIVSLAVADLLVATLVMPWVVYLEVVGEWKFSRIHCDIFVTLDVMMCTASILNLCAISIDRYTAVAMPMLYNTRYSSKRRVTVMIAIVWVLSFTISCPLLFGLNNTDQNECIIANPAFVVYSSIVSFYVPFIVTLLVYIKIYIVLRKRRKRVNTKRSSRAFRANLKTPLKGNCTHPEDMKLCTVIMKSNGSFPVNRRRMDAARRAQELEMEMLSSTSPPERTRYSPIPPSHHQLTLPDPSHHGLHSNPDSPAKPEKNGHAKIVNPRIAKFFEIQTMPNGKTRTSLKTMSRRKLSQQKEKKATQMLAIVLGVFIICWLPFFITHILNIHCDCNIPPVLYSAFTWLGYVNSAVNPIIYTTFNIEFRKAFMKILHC
Description: The non-specific binding was determined in the presence of 1 μM (+)-butaclamol.

T1 sequence (P19020 whole entry): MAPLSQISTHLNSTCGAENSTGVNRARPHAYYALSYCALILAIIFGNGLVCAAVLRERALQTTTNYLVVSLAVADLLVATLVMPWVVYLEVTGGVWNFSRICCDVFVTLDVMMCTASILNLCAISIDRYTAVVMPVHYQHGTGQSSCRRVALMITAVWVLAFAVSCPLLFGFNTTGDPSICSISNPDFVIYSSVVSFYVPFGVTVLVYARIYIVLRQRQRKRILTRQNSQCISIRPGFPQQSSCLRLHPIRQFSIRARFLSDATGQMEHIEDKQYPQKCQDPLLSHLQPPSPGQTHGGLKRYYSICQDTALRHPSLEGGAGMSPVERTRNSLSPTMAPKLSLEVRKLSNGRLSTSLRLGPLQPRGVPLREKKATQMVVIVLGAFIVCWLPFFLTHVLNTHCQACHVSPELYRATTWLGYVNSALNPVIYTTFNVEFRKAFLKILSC

Row | SMILES | IC50 [1] | IC50 [2] | melting point | IC50 [3]
1 | COC(=O)C(NC(=O)N[C@H]1CC[C@H](CCN2CCN(c3cccc(Cl)c3Cl)CC2)CC1)C(C)C (relative stereo) [Compound 29, trans-2-[3-(4-{2-[4-(2,3-Dichloro-phenyl)-piperazin-1-yl]-ethyl}-cyclohexyl)-ureido]-3-methyl-butyric acid methyl ester] | > 0.2 µM | 0.001 to 0.01 µM | – | –
2 | CCNC(=O)N[C@H]1CC[C@H](CCN2CCN(c3cccc(Cl)c3Cl)CC2)CC1 [Compound 2, Trans-1-{4-[2-[4-(2,3-dichlorophenyl)-piperazin-1-yl]-ethyl]-cyclohexyl}-3-ethyl-urea] | > 0.2 µM | < 0.001 µM | 235 to 238 °C | –
3 | CCCNC(=O)N[C@H]1CC[C@H](CCN2CCN(c3cccc(Cl)c3Cl)CC2)CC1 [Compound 4, trans-1-{4-[2-[4-(2,3-dichlorophenyl)-piperazin-1-yl]-ethyl]-cyclohexyl}-3-propyl-urea] | > 0.2 µM | < 0.001 µM | 218 to 220 °C | 0.01 to 0.05 µM
4 | CC(C)NC(=O)N[C@H]1CC[C@H](CCN2CCN(c3cccc(Cl)c3Cl)CC2)CC1 [Compound 5, trans-1-{4-[2-[4-(2,3-dichlorophenyl)-piperazin-1-yl]-ethyl]-cyclohexyl}-3-isopropyl-urea] | > 0.2 µM | < 0.001 µM | 227 to 230 °C | 0.01 to 0.05 µM
5 | CCNC(=O)N[C@H]1CC[C@H](CCN2CCCN(c3cccc(Cl)c3Cl)CC2)CC1 [Compound 6, trans-1-{4-[2-[4-(2,3-dichlorophenyl)-hexahydro[1,4]diazepin-1-yl]-ethyl]-cyclohexyl}-3-ethyl-urea] | > 0.2 µM | < 0.001 µM | 115 to 118 °C | 0.01 to 0.05 µM
6 | CN(C)C(=O)N[C@H]1CC[C@H](CCN2CCCN(c3cccc(Cl)c3Cl)CC2)CC1 [Compound 7, trans-1-{4-[2-[4-(2,3-dichlorophenyl)-hexahydro[1,4]diazepin-1-yl]-ethyl]-cyclohexyl}-3,3-dimethyl-urea] | > 0.2 µM | 0.001 to 0.01 µM | 168 to 172 °C | 0.01 to 0.05 µM
7 | O=C(N[C@H]1CC[C@H](CCN2CCN(c3cccc(Cl)c3Cl)CC2)CC1)N1CCCC1 [Compound 8, trans-N-{4-[2-[4-(2,3-dichlorophenyl)-piperazin-1-yl]-ethyl]-cyclohexyl}-pyrrolidine-1-carboxamide] | > 0.2 µM | < 0.001 µM | 201 to 203 °C | 0.01 to 0.05 µM
8 | O=C(N[C@H]1CC[C@H](CCN2CCCN(c3cccc(Cl)c3Cl)CC2)CC1)N1CCCC1 [Compound 9, trans-N-{4-[2-[4-(2,3-dichlorophenyl)-hexahydro[1,4]diazepin-1-yl]-ethyl]-cyclohexyl}-pyrrolidine-1-carboxamide] | > 0.2 µM | < 0.001 µM | – | 0.001 to 0.01 µM
9 | CCN(CC)C(=O)N[C@H]1CC[C@H](CCN2CCN(c3cccc(Cl)c3Cl)CC2)CC1 [Compound 10, trans-1-{4-[2-[4-(2,3-dichlorophenyl)-piperazin-1-yl]-ethyl]-cyclohexyl}-3,3-diethyl-urea] | – | – | 171 to 173 °C | –
10 | CCN(C)C(=O)N[C@H]1CC[C@H](CCN2CCN(c3cccc(Cl)c3Cl)CC2)CC1 [Compound 11, trans-1-{4-[2-[4-(2,3-dichlorophenyl)-piperazin-1-yl]-ethyl]-cyclohexyl}-3-ethyl-3-methyl-urea] | – | – | 195 to 198 °C | –
11 | O=C(N[C@H]1CC[C@H](CCN2CCN(c3cccc(Cl)c3Cl)CC2)CC1)N1CCNCC1 [Compound 14, trans-N-{4-[2-[4-(2,3-dichlorophenyl)-piperazin-1-yl]-ethyl]-cyclohexyl}-piperazine-1-carboxamide] | – | – | 293 to 296 °C | –
12 | CN1CCN(C(=O)N[C@H]2CC[C@H](CCN3CCN(c4cccc(Cl)c4Cl)CC3)CC2)CC1 [Compound 15, trans-N-{4-[2-[4-(2,3-dichlorophenyl)-piperazin-1-yl]-ethyl]-cyclohexyl}-4-methyl-piperazine-1-carboxamide] | – | – | 166 to 168 °C | –
13 | O=C(N[C@H]1CC[C@H](CCN2CCN(c3cccc(Cl)c3Cl)CC2)CC1)N1CCOCC1 [Compound 16, trans-N-{4-[2-[4-(2,3-dichlorophenyl)-piperazin-1-yl]-ethyl]-cyclohexyl}-morpholine-4-carboxamide] | > 0.2 µM | < 0.001 µM | 201 to 203 °C | –
14 | O=C(N[C@H]1CC[C@H](CCN2CCN(c3cccc(Cl)c3Cl)CC2)CC1)N1CCCCC1 [Compound 17, trans-N-{4-[2-[4-(2,3-dichlorophenyl)-piperazin-1-yl]-ethyl]-cyclohexyl}-piperidine-1-carboxamide] | – | – | 188 to 190 °C | –
15 | O=C(N[C@H]1CC[C@H](CCN2CCN(c3cccc(Cl)c3Cl)CC2)CC1)N1CCC(O)CC1 [Compound 18, trans-N-{4-[2-[4-(2,3-dichlorophenyl)-piperazin-1-yl]-ethyl]-cyclohexyl}-4-hydroxy-piperidine-1-carboxamide] | – | – | 178 to 180 °C | –
16 | C=CCNC(=O)N[C@H]1CC[C@H](CCN2CCN(c3cccc(Cl)c3Cl)CC2)CC1 [Compound 21, trans-1-Allyl-3-(4-{2-[4-(2,3-dichloro-phenyl)-piperazin-1-yl]-ethyl}-cyclohexyl)-urea] | > 0.2 µM | < 0.001 µM | – | 0.01 to 0.05 µM
17 | CCCCNC(=O)N[C@H]1CC[C@H](CCN2CCN(c3cccc(Cl)c3Cl)CC2)CC1 [Compound 24, trans-1-Butyl-3-(4-{2-[4-(2,3-dichloro-phenyl)-piperazin-1-yl]-ethyl}-cyclohexyl)-urea] | > 0.2 µM | < 0.001 µM | – | 0.01 to 0.05 µM
18 | N#Cc1cccc(NC(=O)N[C@H]2CC[C@H](CCN3CCN(c4cccc(Cl)c4Cl)CC3)CC2)c1 [Compound 31, trans-1-(3-Cyano-phenyl)-3-(4-{2-[4-(2,3-dichloro-phenyl)-piperazin-1-yl]-ethyl}-cyclohexyl)-urea] | > 0.2 µM | < 0.001 µM | – | –
19 | COc1cc(NC(=O)N[C@H]2CC[C@H](CCN3CCN(c4cccc(Cl)c4Cl)CC3)CC2)cc(OC)c1OC [Compound 32, trans-1-(4-{2-[4-(2,3-Dichloro-phenyl)-piperazin-1-yl]-ethyl}cyclohexyl)-3-(3,4,5-trimethoxy-phenyl)-urea] | > 0.2 µM | < 0.001 µM | – | 0.01 to 0.05 µM
20 | O=C(NC1CCCCC1)N[C@H]1CC[C@H](CCN2CCN(c3cccc(Cl)c3Cl)CC2)CC1 [Compound 33, trans-1-Cyclohexyl-3-(4-{2-[4-(2,3-dichloro-phenyl)-piperazin-1-yl]-ethyl}-cyclohexyl)-urea] | > 0.2 µM | < 0.001 µM | – | –
21 | CC(C)(C)NC(=S)N[C@H]1CC[C@H](CCN2CCN(c3cccc(Cl)c3Cl)CC2)CC1 [Compound 38, trans-1-tert-Butyl-3-(4-{2-[4-(2,3-dichloro-phenyl)-piperazin-1-yl]-ethyl}-cyclohexyl)-thiourea] | > 0.2 µM | 0.001 to 0.01 µM | – | 0.01 to 0.05 µM
22 | CCCNC(=S)N[C@H]1CC[C@H](CCN2CCN(c3cccc(Cl)c3Cl)CC2)CC1 [Compound 42, trans-1-(4-{2-[4-(2,3-Dichloro-phenyl)-piperazin-1-yl]-ethyl}-cyclohexyl)-3-propyl-thiourea] | > 0.2 µM | < 0.001 µM | – | 0.01 to 0.05 µM
23 | CCOC(=O)CNC(=S)N[C@H]1CC[C@H](CCN2CCN(c3cccc(Cl)c3Cl)CC2)CC1 [Compound 44, trans-[3-(4-{2-[4-(2,3-Dichloro-phenyl)-piperazin-1-yl]-ethyl}-cyclohexyl)-thioureido]-acetic acid ethyl ester] | > 0.2 µM | < 0.001 µM | – | 0.01 to 0.05 µM
24 | CCNC(=S)N[C@H]1CC[C@H](CCN2CCN(c3cccc(Cl)c3Cl)CC2)CC1 [Compound 45, trans-1-(4-{2-[4-(2,3-Dichloro-phenyl)-piperazin-1-yl]-ethyl}-cyclohexyl)-3-ethyl-thiourea] | > 0.2 µM | < 0.001 µM | – | 0.01 to 0.05 µM
25 | CC(C)(C)NC(=O)N[C@H]1CC[C@H](CCN2CCN(c3cccc(Cl)c3Cl)CC2)CC1 [Compound 47, trans-1-tert-Butyl-3-(4-{2-[4-(2,3-dichloro-phenyl)-piperazin-1-yl]-ethyl}-cyclohexyl)-urea] | > 0.2 µM | < 0.001 µM | – | –
26 | O=C(Nc1ccccc1)N[C@H]1CC[C@H](CCN2CCN(c3cccc(Cl)c3Cl)CC2)CC1 [Compound 48, trans-1-(4-{2-[4-(2,3-Dichloro-phenyl)-piperazin-1-yl]-ethyl}-cyclohexyl)-3-phenyl-urea] | > 0.2 µM | < 0.001 µM | – | 0.01 to 0.05 µM
27 | O=C(NCc1ccccc1)N[C@H]1CC[C@H](CCN2CCN(c3cccc(Cl)c3Cl)CC2)CC1 [Compound 49, trans-1-Benzyl-3-(4-{2-[4-(2,3-dichloro-phenyl)-piperazin-1-yl]-ethyl}-cyclohexyl)-urea] | > 0.2 µM | < 0.001 µM | – | 0.05 to 0.2 µM
28 | COc1ccc(NC(=O)N[C@H]2CC[C@H](CCN3CCN(c4cccc(Cl)c4Cl)CC3)CC2)cc1 [Compound 50, trans-1-(4-{2-[4-(2,3-Dichloro-phenyl)-piperazin-1-yl]-ethyl}-cyclohexyl)-3-(4-methoxy-phenyl)-urea] | > 0.2 µM | < 0.001 µM | – | 0.05 to 0.2 µM
29 | CCOC(=O)CNC(=O)N[C@H]1CC[C@H](CCN2CCN(c3cccc(Cl)c3Cl)CC2)CC1 [Compound 51, trans-[3-(4-{2-[4-(2,3-Dichloro-phenyl)-piperazin-1-yl]-ethyl}-cyclohexyl)-ureido]-acetic acid ethyl ester] | > 0.2 µM | < 0.001 µM | – | 0.01 to 0.05 µM
